For one substance, tumor inhibition rate results are on record in US20230165969A1, “PHARMACEUTICAL COMPOSITION COMPRISING ANTIBODY DRUG CONJUGATE AND USE THEREOF” (priority 2020, published 2023).

This assay deals with trastuzumab (Herceptin)-resistant human breast cancer cell strain JIMT-1 xenograft tumor. Nature of the assay: Drug efficacy on JIMT-1 tumor-bearing mice. In kind it is in vivo, nu/nu nude mice. Conditions: 10 mg/kg, two intraperitoneal injections, observation for 34 days. The protocol:
The tumor volumes and body weights were measured twice a week and the results were recorded.

For the substance T-DM1, the tumor inhibition rate result is listed as “no inhibition effect on tumors”.
